Source: patent publication US20170066717A1, “NEW PHENYLAZETIDINECARBOXYLATE OR -CARBOXAMIDE COMPOUNDS” (INVENTIVA, priority 2014, published 2017)

How the values were obtained:
[1] = molecular target: T1, NURR-1/RXRα (Homo sapiens, UniProt P19793); assay: Transactivation test, NURR-1-Gal4/RXRα, luciferase reporter in Cos-7 cells; assay type: cell-based; details: for Emax: COS-7, induction level relative to reference XCT0135908 at 2×10^−5 M (=100%), read-out: hNurr1_RXRaFL Emax (%); for EC50: Cos-7 cells, NURR-1-Gal4/RXRα, luciferase reporter, read-out: hNurr1_RXRaFL EC50
T1 construct: expressed in transfected cells; host or cells: Cos-7 cells
T1 sequence (P19793 whole entry, the tested form may be a part): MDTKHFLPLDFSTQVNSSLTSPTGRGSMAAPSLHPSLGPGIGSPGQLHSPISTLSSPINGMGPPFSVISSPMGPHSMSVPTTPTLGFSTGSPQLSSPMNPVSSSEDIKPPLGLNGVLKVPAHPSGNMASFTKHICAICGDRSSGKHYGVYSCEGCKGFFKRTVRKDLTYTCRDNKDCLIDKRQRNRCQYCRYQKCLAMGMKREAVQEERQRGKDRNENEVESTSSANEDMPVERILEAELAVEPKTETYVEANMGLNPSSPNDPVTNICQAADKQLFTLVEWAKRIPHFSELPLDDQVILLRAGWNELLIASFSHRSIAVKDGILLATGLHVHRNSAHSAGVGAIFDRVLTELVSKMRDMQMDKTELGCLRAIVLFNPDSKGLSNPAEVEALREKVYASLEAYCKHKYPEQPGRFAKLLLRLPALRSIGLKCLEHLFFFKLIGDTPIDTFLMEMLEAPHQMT
T1 sequence (P43354 whole entry partner, the tested form may be a part): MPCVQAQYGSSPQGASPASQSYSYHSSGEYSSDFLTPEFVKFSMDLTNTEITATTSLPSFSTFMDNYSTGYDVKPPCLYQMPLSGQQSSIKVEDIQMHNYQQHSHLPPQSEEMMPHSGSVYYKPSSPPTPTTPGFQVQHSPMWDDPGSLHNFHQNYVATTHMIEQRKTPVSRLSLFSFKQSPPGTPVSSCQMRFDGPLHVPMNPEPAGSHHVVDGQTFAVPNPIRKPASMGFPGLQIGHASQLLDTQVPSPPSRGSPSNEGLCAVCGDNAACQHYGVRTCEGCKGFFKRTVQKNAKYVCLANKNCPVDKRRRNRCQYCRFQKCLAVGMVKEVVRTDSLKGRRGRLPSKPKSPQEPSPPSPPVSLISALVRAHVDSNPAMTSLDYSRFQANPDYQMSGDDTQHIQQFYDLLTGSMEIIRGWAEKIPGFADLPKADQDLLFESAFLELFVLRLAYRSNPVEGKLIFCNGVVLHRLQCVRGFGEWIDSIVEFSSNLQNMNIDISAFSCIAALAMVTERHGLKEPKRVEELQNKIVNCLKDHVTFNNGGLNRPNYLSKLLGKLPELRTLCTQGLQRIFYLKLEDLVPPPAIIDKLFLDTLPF
T1 sequence (P04386 1-147 partner limits assumed): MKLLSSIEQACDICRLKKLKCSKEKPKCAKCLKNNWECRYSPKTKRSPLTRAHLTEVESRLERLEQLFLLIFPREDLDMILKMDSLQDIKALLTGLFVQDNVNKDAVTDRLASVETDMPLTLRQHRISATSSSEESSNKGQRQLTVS

[2] = tested on: dopaminergic neurons of primary culture of rat embryo mesencephalon treated with MPP+; assay: Neuroprotection in primary culture of rat embryo mesencephalon treated with MPP+ (count of tyrosine hydroxylase expressing cells); assay type: cell-based; details: recombinant human BDNF 10 ng/mL = 100%, 2 days with MPP+
Description: Another in vitro test was carried out with the compounds according to the invention, for the purpose of verifying that the molecules indeed have the expected neuroprotective effect in vitro.
The compounds were tested in a model of primary culture of rat embryo mesencephalon treated with 1-methyl-4-phenylpyridinium (MPP+), which is the active metabolite of 1-methyl-4-phenyl-1,2,3,6-tetrahydropyridine (MPTP). MPP+ enters into dopananergic neurons via the dopamine transporter and causes the death of these dopaminergic neurons. The following protocol was used.
Gestating female rats (15 days of gestation) were euthanized and the rat embryos were removed. The mesencephalons were removed. The tissue was then dissociated mechanically and by using trypsin. The cells collected after centrifugation were distributed into 96-well plates and left to stand for 5 days. The culture conditions made it possible to obtain a cell layer composed of neurons (dopaminergic and others) and astrocytes. On the 6th day, the cells were optionally treated with MPP+ in the presence or absence of test compound. After 2 days of incubation, the cells were fixed and various cell labellings were carried out; staining of the nuclei with the Hoechst fluorescent label and immunolabelling of tyrosine hydroxylase. The cells expressing tyrosine hydroxylase were counted using an image analyzer coupled to an optical microscope.
Recombinant human BDNF trophic factor (10 ng/mL) was used as reference. The activities of the compounds are given as percentages of activity relative to the BDNF reference, the activity of which is arbitrarily defined as being equal to 100%.

[3] = molecular target: T2, NURR-1/RXRγ (Homo sapiens, UniProt P48443); assay: Transactivation test, NURR-1-Gal4/RXRγ, luciferase reporter in Cos-7 cells; assay type: cell-based; details: for Emax: COS-7, induction level relative to reference XCT0135908 at 2×10^−5 M (=100%), read-out: hNurr1_RXRgFL Emax (%); for EC50: Cos-7 cells, NURR-1-Gal4/RXRγ, luciferase reporter, read-out: hNurr1_RXRgFL EC50
T2 construct: expressed in transfected cells; host or cells: Cos-7 cells
T2 sequence (P48443 whole entry, the tested form may be a part): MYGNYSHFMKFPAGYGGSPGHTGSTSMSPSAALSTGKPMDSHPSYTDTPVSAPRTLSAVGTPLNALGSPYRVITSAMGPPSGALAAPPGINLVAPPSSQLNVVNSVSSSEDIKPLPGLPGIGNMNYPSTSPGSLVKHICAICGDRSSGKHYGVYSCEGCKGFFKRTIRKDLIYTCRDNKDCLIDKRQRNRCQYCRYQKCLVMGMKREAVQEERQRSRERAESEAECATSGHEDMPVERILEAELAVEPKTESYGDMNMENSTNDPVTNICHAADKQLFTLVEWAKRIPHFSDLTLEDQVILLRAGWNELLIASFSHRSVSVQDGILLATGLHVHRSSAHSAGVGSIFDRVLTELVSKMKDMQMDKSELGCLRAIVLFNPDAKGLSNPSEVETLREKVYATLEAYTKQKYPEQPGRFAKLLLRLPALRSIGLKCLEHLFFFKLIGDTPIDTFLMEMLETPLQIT
T2 sequence (P43354 whole entry partner, the tested form may be a part): as the sequence (P43354 whole entry partner, the tested form may be a part) above
T2 sequence (P04386 1-147 partner limits assumed): as the sequence (P04386 1-147 partner limits assumed) above

[4] = induction level relative to reference XCT0135908 at 2×10^−5 M (=100%)

For CCC1CN(c2cccc(N3CC(C(=O)O)C3)c2)c2ccc(C(F)(F)F)cc2O1 (stereo not shown) [Example 114, 1-[3-[2-ethyl-7-(trifluoromethyl)-2,3-dihydro-1,4-benzoxazin-4-yl]phenyl]azetidine-3-carboxylic acid], the Emax [1] was 139%, the EC50 [1] was 9 nM and the “percentage of activity relative to the BDNF reference” value ([2]; compound 1 μM) was 101%. The “percentage of activity relative to the BDNF reference” value ([2]; compound 10 μM) was 89%, the Emax [3] was 150% and the EC50 [3] was 11 nM.
For Cc1cn(-c2cccc(N3CC(C(=O)NCCCn4ccnc4)C3)c2)c2ccc(C(F)(F)F)cc12 [Example 160], the Emax [1] was 115%, the EC50 [1] was 15 nM and the “percentage of activity relative to the BDNF reference” value ([2]; compound 1 μM) was 54%. For the same molecule, the “percentage of activity relative to the BDNF reference” value ([2]; compound 10 μM) was 79%, the Emax [3] was 124% and the EC50 [3] was 31 nM.
For Cc1cn(-c2cccc(N3CC(C(=O)NCCC#N)C3)c2)c2ccc(C(F)(F)F)cc12 [Example 159, N-(2-cyanoethyl)-1-[3-[3-methyl-5-(trifluoromethyl)indol-1-yl]phenyl]azetidine-3-carboxamide], the Emax [1] was 115%, the EC50 [1] was 3 nM and the “percentage of activity relative to the BDNF reference” value ([2]; compound 1 μM) was 73%. For the same molecule, the “percentage of activity relative to the BDNF reference” value ([2]; compound 10 μM) was 101%, the Emax [3] was 110% and the EC50 [3] was 6 nM.
In the case of Cc1cn(-c2cccc(N3CC(C(=O)NCCCO)C3)c2)c2ccc(C(F)(F)F)cc12 [Example 154, N-(3-hydroxypropyl)-1-[3-[3-methyl-5-(trifluoromethyl)indol-1-yl]phenyl]azetidine-3-carboxamide], the Emax [1] is reported as 111%, the EC50 [1] is reported as under 1 nM and the “percentage of activity relative to the BDNF reference” value ([2]; compound 1 μM) is reported as 67%. The “percentage of activity relative to the BDNF reference” value ([2]; compound 10 μM) was 105%, the Emax [3] was 104% and the EC50 [3] was 3 nM.
In the case of Cc1cn(-c2cccc(N3CC(C(=O)NCCOCCO)C3)c2)c2ccc(C(F)(F)F)cc12 [Example 158, N-[2-(2-hydroxethoxy)ethyl]-1-[3-[3-methyl-5-(trifluoromethyl)indol-1-yl]phenyl]azetidine-3-carboxamide], the Emax [1] is reported as 92%, the EC50 [1] is reported as 2 nM and the “percentage of activity relative to the BDNF reference” value ([2]; compound 1 μM) is reported as 54%. For the same molecule, the “percentage of activity relative to the BDNF reference” value ([2]; compound 10 μM) was 77%, the Emax [3] was 125% and the EC50 [3] was 4 nM.
In the case of CCCC1CN(c2cccc(N3CC(C(=O)O)C3)c2)c2ccc(C(F)(F)F)cc2O1 (stereo not shown) [Example 117, 1-[3-[2-propyl-7-(tirfluormethyl)2,3-dihydro-1,4-benzoxazin-4-yl]phenyl]azetidine-3-carboxylic acid], the Emax [1] is reported as 103%, the EC50 [1] is reported as 9 nM and the “percentage of activity relative to the BDNF reference” value ([2]; compound 1 μM) is reported as 75%. The “percentage of activity relative to the BDNF reference” value ([2]; compound 10 μM) was 84%, the Emax [3] was 125% and the EC50 [3] was 4 nM.
For Cc1cc(N2CC(C(=O)O)C2)cc(-n2cc(C)c3nc(C(F)(F)F)ccc32)c1 [Example 58, 1-[3-methyl-5-[3-methyl;-5-(trifluoromethyl)pyrrol[3,2,-b]pyridine-1-yl]phenyl]azetidine-3-carboxylic acid], the Emax [1] was 118%, the EC50 [1] was 7 nM and the “percentage of activity relative to the BDNF reference” value ([2]; compound 1 μM) was 80%. For the same molecule, the “percentage of activity relative to the BDNF reference” value ([2]; compound 10 μM) was 79%, the Emax [3] was 102% and the EC50 [3] was 13 nM.
In the case of CN(C)S(=O)(=O)c1cn(-c2cccc(N3CC(C(=O)O)C3)c2)c2ccc(C(F)(F)F)cc12 [Example 136, 1-[3-[3-(dimethylsulfamoyl)-5-(trifluoromethyl)indol-1-yl]phenyl]azetidine-3-carboxylic acid], the Emax [1] is reported as 128%, the EC50 [1] is reported as 22 nM and the “percentage of activity relative to the BDNF reference” value ([2]; compound 1 μM) is reported as 49%. For the same molecule, the “percentage of activity relative to the BDNF reference” value ([2]; compound 10 μM) was 86%, the Emax [3] was 121% and the EC50 [3] was 55 nM.
With CC1(C)CNc2c(cc(C(F)(F)F)cc2-c2cccc(N3CC(C(=O)O)C3)c2)O1 [Example 61, 1-[3-[2,2-dimethyl-7-(trifluoromethyl)-3,4 dihydro-1,4-benzoxazin-5-yl]phenyl]azetidine-3-carboxylic acid] the Emax [1] was 91%, the EC50 [1] was 8 nM and the “percentage of activity relative to the BDNF reference” value ([2]; compound 1 μM) was 85%. For the same molecule, the “percentage of activity relative to the BDNF reference” value ([2]; compound 10 μM) was 106%, the Emax [3] was 107% and the EC50 [3] was 15 nM.
With Cc1cc(-c2cccc(N3CC(C(=O)O)C3)c2)cc(C(F)(F)F)c1 [Example 12, 1-[3-[3-methyl-5-(trifluoromethyl)phenyl]phenyl]azetidine-carboxylic acid] the Emax [1] was 122%, the EC50 [1] was 46 nM and the “percentage of activity relative to the BDNF reference” value ([2]; compound 1 μM) was 64%. For the same molecule, the “percentage of activity relative to the BDNF reference” value ([2]; compound 10 μM) was 74%, the Emax [3] was 129% and the EC50 [3] was 48 nM.
For Cc1cn(-c2cccc(N3CC(C(=O)NCCc4c[nH]cn4)C3)c2)c2ccc(C(F)(F)F)cc12 [Example 155, N-[2-(1H-imidazol-4-yl)ethyl]-1-[3-[3-methyl-5-(trifluoromethyl)indol-1yl]phenyl]azetidine-3-carboxamide], the Emax [1] was 123%, the EC50 [1] was 4 nM and the “percentage of activity relative to the BDNF reference” value ([2]; compound 1 μM) was 49%. For the same molecule, the “percentage of activity relative to the BDNF reference” value ([2]; compound 10 μM) was 94%, the Emax [3] was 116% and the EC50 [3] was 5 nM.
For COCCNC(=O)C1CN(c2cccc(-n3cc(C)c4cc(C(F)(F)F)ccc43)c2)C1 [Example 173, N-(2-methoxyethyl)-1-[3-[3-methyl-5-(trifluoromethyly)indol-1-yl]phenyl]azetidine-3-carboxamide], the Emax [1] was 103%, the EC50 [1] was under 1 nM and the “percentage of activity relative to the BDNF reference” value ([2]; compound 1 μM) was 18%. The “percentage of activity relative to the BDNF reference” value ([2]; compound 10 μM) was 72%, the Emax [3] was 102% and the EC50 [3] was 5 nM.
With CC(C)CC1Oc2cc(C(F)(F)F)ccc2N(c2cccc(N3CC(C(=O)O)C3)c2)C1=O (single isomer, unassigned; isomer 2) [Example 246-2, 1-[3-[2-isobutyl-3-oxo-7-(trofluormethyl)-1,4-benzoxazin-4-yl]phenyl]azetidine-3-carboxylic acid, isomer 2] the melting point was 57 to 70 °C, the EC50 [1] was 73 nM and the “hNurr1_RXRaFL Emax (%)” value [1, 4] was 58%. The EC50 [3] was 126 nM and the “hNurr1_RXRgFL Emax (%)” value [3, 4] was 46%.
With O=C([O-])C1CN(c2cccc(N3c4ccc(Cl)cc4C4CCCC43)c2)C1.[Na+] (stereo not shown) [Example 261, sodium 1-[3-(7-chloro-2,3,3a,8b-tetrahydro-1H-cyclopenta[b]indol-4-yl)phenyl]azetidine-3-carboxylate] the melting point was 141 to 170 °C, the Emax [1] was 78% and the EC50 [1] was 31 nM. The Emax [3] was 95% and the EC50 [3] was 304 nM.
CCc1ccc2c(c1)OC(C)(C)CN2c1cccc(N2CC(C(=O)[O-])C2)c1.[Na+] [Example 235, sodium 1-[3-(7-ethyl-2,2-dimethyl-3H-1,4-benzoxazin-4-yl)phenyl]azetidine-3-carboxylate] showed a melting point of 160 to 188 °C, an Emax [1] of 102% and an EC50 [1] of 92 nM. The Emax [3] was 107% and the EC50 [3] was 174 nM.
For CC1(C)CN(c2cccc(N3CC(C(=O)O)C3)c2)c2ccc(OC(F)(F)F)cc2O1 [Example 226, 1-[3-[2,2-dimethyl-7-(trifluoromethyoxy)-3H-1,4-benzoxazin-4-yl]phenyl]azetidine-3-carboxylic acid], the melting point was 69 to 76 °C, the Emax [1] was 103% and the EC50 [1] was 71 nM. The Emax [3] was 106% and the EC50 [3] was 156 nM.
Work on CC(C)c1cc2c(c(-c3cccc(N4CC(C(=O)O)C4)c3)c1)C(=O)CC(C)(C)O2 [Example 71, 1-[3-(7-isopropyl-2,2-dimethyl-4-oxochroman-5-yl)phenyl]azetidine-3-carboxylic acid] yielded a melting point of 70 to 88 °C, an Emax [1] of 96% and an EC50 [1] of 326 nM. The Emax [3] was 101% and the EC50 [3] was 435 nM.
